Data reported in EP0428132A1, “Pradimicin derivatives” (Bristol-Myers Squibb Company, priority 1989, dated 1991).
Values after ≈ are worked out from the molar mass of the structure shown. Where a name gives a salt, the structure may show the parent alone.

Tests used:
[1] = tested on: Candida albicans A9540; experiment: Intravenous Candida albicans infection mouse model, Table 2 part B; assay type: in vivo, mice
Method: Several compounds were also evaluated in an intravenous Candida albicans […] infection mouse model. The test organism was suspended in saline approximately 10 times the median lethal dose of the fungus (10⁶ cells/mouse) were used to infect intravenously male ICR mice weighing 20 to 24 g. Groups of five mice at each dose level were given the test compounds intravenously or intramuscularly. The 50% protective dose (PD₅₀) was calculated from survival rates recorded 20 or 21 days after the fungal challenge. […]

[2] = tested on: Candida albicans A25578; experiment: In vitro antifungal activity, serial agar dilution method (Table 1a); assay type: cell-based; settings: A25578, YM agar (pH 7.0, Difco), 30°C for 2 days (yeast) or 4 days (filamentous fungi), read-out: MICs, Candida albicans A25578
Method: (§1) The inoculum size was adjusted to 10⁶ cells/ml, and a volume of approximately 0.003 ml of fungal suspension was applied to the surface of the antibiotic containing agar plates with a multiinoculator. After incubation, the lowest concentration of antibiotic causing virtually complete inhibition of fungal growth was determined as the minimum inhibitory concentration (MIC).

[3] = tested on: Trichophyton rubrum A26761; experiment: as above; assay type: cell-based; settings: A26761, pH 7, read-out: MICs, Trichophyton rubrum A26761
Method: as §1

[4] = tested on: Cryptococcus neoformans A15053; experiment: as above; assay type: cell-based; settings: A15053, YM agar (pH 7.0, Difco), 30°C for 2 days (yeast) or 4 days (filamentous fungi), read-out: MICs, Cryptococcus neoformans A15053
Method: as §1

[5] = tested on: Microsporum gypseum WW1107; experiment: as above; assay type: cell-based; settings: Nannizzia gypsea, YM agar (pH 7.0, Difco), 30°C for 2 days (yeast) or 4 days (filamentous fungi), read-out: MICs, Microsporum gypseum WW1107
Method: as §1

[6] = tested on: Candida paratropicalis A25825; experiment: as above; assay type: cell-based; settings: YM agar (pH 7.0, Difco); 30°C for 2 days (yeast) or 4 days (filamentous fungi); read-out: MICs, Candida paratropicalis A25825
Method: as §1

[7] = tested on: Candida pseudotropicalis A25802; experiment: as above; assay type: cell-based; settings: Kluyveromyces marxianus, YM agar (pH 7.0, Difco), 30°C for 2 days (yeast) or 4 days (filamentous fungi), read-out: MICs, Candida pseudotropicalis A25802
Method: as §1

[8] = tested on: Candida albicans A9540; experiment: as above; assay type: cell-based; settings: A9540, YM agar (pH 7.0, Difco), 30°C for 2 days (yeast) or 4 days (filamentous fungi), read-out: MICs, Candida albicans A9540
Method: as §1

[9] = tested on: Candida tropicalis A25812; experiment: as above; assay type: cell-based; settings: A25812, YM agar (pH 7.0, Difco), 30°C for 2 days (yeast) or 4 days (filamentous fungi), read-out: MICs, Candida tropicalis A25812
Method: as §1

[10] = tested on: Saccharomyces cerevisiae A25803; experiment: as above; assay type: cell-based; settings: YM agar (pH 7.0, Difco), 30°C for 2 days (yeast) or 4 days (filamentous fungi), read-out: MICs, Saccharomyces cerevisiae A25803
Method: as §1

[11] = tested on: Trichophyton mentagrophytes A26771; experiment: as above; assay type: cell-based; settings: A26771, YM agar (pH 7.0, Difco), 30°C for 2 days (yeast) or 4 days (filamentous fungi), read-out: MICs, Trichophyton mentagrophytes A26771
Method: as §1

[12] = tested on: Candida tropicalis A25809; experiment: as above; assay type: cell-based; settings: YM agar (pH 7.0, Difco), 30°C for 2 days (yeast) or 4 days (filamentous fungi), read-out: MICs, Candida tropicalis A25809
Method: as §1

[13] = tested on: Microsporum canis WW10218; experiment: as above; assay type: cell-based; settings: WW10218, pH 7, read-out: MICs, Microsporum canis WW10218
Method: as §1

[14] = Water solubility, protocol I (PBS, HPLC); assay type: physicochemical; settings: Method I: PBS without CaCl₂ and MgCl₂.6H₂O
Method: The supernatant (2 µL) was analyzed by HPLC using the conditions specified for each compound in the Experimental Section. […] When not soluble, an additional amount of PBS (x µL) was added, sonicated, and centrifuged. When visibly soluble, the solution (2 µL) was injected to HPLC and the peak area was used for the known concentration of the sample.

[15] = tested on: T. mentagrophytes A22838; experiment: In vitro antifungal activity, serial agar dilution method (Table 1a, footnote strain 3); assay type: cell-based; settings: Trichophyton mentagrophytes, strain per footnote **3, YM agar (pH 7.0, Difco), 30°C for 2 days (yeast) or 4 days (filamentous fungi), read-out: MICs, T. mentagrophytes A22838
Method: as §1

[16] = tested on: T. rubrum A24195; experiment: In vitro antifungal activity, serial agar dilution method (Table 1a, footnote strain 2); assay type: cell-based; settings: Trichophyton rubrum, A24195, pH 7, read-out: MICs, T. rubrum A24195
Method: as §1

[17] = tested on: M. gypseum A22810; experiment: In vitro antifungal activity, serial agar dilution method (Table 1a, footnote strain 1); assay type: cell-based, Microsporum gypseum; settings: Nannizzia gypsea, strain per footnote **1, YM agar (pH 7.0, Difco), 30°C for 2 days (yeast) or 4 days (filamentous fungi), read-out: MICs, M. gypseum A22810
Method: as §1

SMILES | PD₅₀ ([1]; mouse, in vivo) [mg/kg] | MIC [2] [µg/mL] | MIC [3] [µg/mL] | MIC [4] [µg/mL] | MIC [5] [µg/mL] | MIC [6] [µg/mL] | MIC [7] [µg/mL] | MIC [8] [µg/mL] | MIC [9] [µg/mL] | MIC [10] [µg/mL] | MIC [11] [µg/mL] | MIC [12] [µg/mL] | MIC [13] [µg/mL] | solubility [14] [µg/mL] | MIC [15] [µg/mL] | MIC [16] [µg/mL] | MIC [17] [µg/mL] | PD₅₀ ([1]; Part B: route IM, at 1 and 3.5 hrs after infection and twice on the following day, 21 days after fungal challenge, method of Spearman-Karber, male ICR mice) [mg/kg] | PD₅₀ ([1]; Part B: route IV, at 1 and 3.5 hrs after infection and twice on the following day, 21 days after fungal challenge, method of Spearman-Karber, male ICR mice) [mg/kg]
C#CCN(C)[C@@H]1[C@H](O)[C@@H](O)[C@H](O[C@H]2c3cc(C)c(C(=O)N[C@H](C)C(=O)O)c(O)c3-c3c(cc4c(c3O)C(=O)c3cc(OC)cc(O)c3C4=O)[C@@H]2O)O[C@@H]1C [Ex. 23, N-(Propargyl) pradimicin B] | >50 | 1.6 (≈ 2.14 µM) | 25 (≈ 33.5 µM) | 1.6 (≈ 2.14 µM) | 50 (≈ 67 µM) | > 50 | 1.6 (≈ 2.14 µM) | 50 (≈ 67 µM) | 50 (≈ 67 µM) | 0.8 (≈ 1.07 µM) | 25 (≈ 33.5 µM) | 1.6 (≈ 2.14 µM) | 25 (≈ 33.5 µM) | 500 (≈ 670 µM) |  |  |  |  | 
COc1cc(O)c2c(c1)C(=O)c1c(cc3c(c1O)-c1c(cc(C)c(C(=O)N[C@H](C)C(=O)O)c1O)[C@H](O[C@@H]1O[C@H](C)[C@H](N(C)C(=O)CN)[C@H](O)[C@H]1O)[C@H]3O)C2=O [Ex. 14, N-(glycyl) pradimicin B formate salt] |  | 3.2 |  | 1.6 |  | 3.2 | 1.6 | 3.2 | 3.2 | 1.6 |  | 3.2 |  |  | 1.6 | 1.6 | 3.2 |  | 
CN[C@@H]1[C@H](O)[C@@H](O)[C@H](O[C@H]2c3cc(C)c(C(=O)N[C@H](C)C(=O)O)c(O)c3-c3c(cc4c(c3O)C(=O)c3cc(OC)cc(O)c3C4=O)[C@@H]2O)O[C@@H]1C [Pradimicin B, reference compound] |  | 1.6 (≈ 2.26 µM) | 3.2 (≈ 4.52 µM) | 0.8 (≈ 1.13 µM) | 12.5 (≈ 17.6 µM) | 3.2 (≈ 4.52 µM) | 0.8 (≈ 1.13 µM) | 3.2 (≈ 4.52 µM) | 3.2 (≈ 4.52 µM) | 0.8 (≈ 1.13 µM) | 3.2 (≈ 4.52 µM) | 0.8 (≈ 1.13 µM) | 3.2 (≈ 4.52 µM) | 70 (≈ 98.8 µM) |  |  |  | >50 | 32
C=CCN(C)[C@@H]1[C@H](O)[C@@H](O)[C@H](O[C@H]2c3cc(C)c(C(=O)N[C@H](C)C(=O)O)c(O)c3-c3c(cc4c(c3O)C(=O)c3cc(OC)cc(O)c3C4=O)[C@@H]2O)O[C@@H]1C [Ex. 21, N-(Allyl) pradimicin B] | >50 | 0.8 (≈ 1.07 µM) | 3.2 (≈ 4.27 µM) | 1.6 (≈ 2.14 µM) | 12.5 (≈ 16.7 µM) | 6.3 (≈ 8.41 µM) | 0.8 (≈ 1.07 µM) | 3.2 (≈ 4.27 µM) | 6.3 (≈ 8.41 µM) | 0.8 (≈ 1.07 µM) | 3.2 (≈ 4.27 µM) | 1.6 (≈ 2.14 µM) | 3.2 (≈ 4.27 µM) | 2000 (≈ 2670 µM) |  |  |  |  | 
